Results published in patent US9427426B2 (priority 2008, dated 2016).
“And” between values parts separate entries of the source, which are not always exact repeats. Equal entries are not always repeated.

What was measured:
[1] = test system: rats intoxicated with lead (lead acetate); assay: Example 1: erdosteine per os vs NAC per os in rats intoxicated with lead; type: in vivo, Wistar rats; conditions: erdosteine 875 mg/kg or NAC 500 mg/kg per os once a day for 7 days
Experimental: 3. […] NAC has been mixed with bidistilled water, the resulting solution being administered in volume of 10 ml/kg.
4. […] Erdosteine has been mixed with bidistilled water and sodium hydrogen carbonate equimolar, the resulting solution being administered in volume of 10 ml/kg.
(§1) Mortality has been recorded. […] Few animals have been collected urine eliminated spontaneously for Pb—Hg analysis. Animals have been sacrificed under general anesthesia with ether. 6 animals of each group (3 males and 3 females) have been randomly selected for macroscopic and microscopic anatomic-pathological examination.

[2] = test system: rats intoxicated with lead (lead acetate); assay: Example 2: erdosteine i.v. vs NAC i.v. in rats intoxicated with lead; type: in vivo, Wistar rats; conditions: for Mortalitaty total / Mortality in percent: Pb intoxicated (lead acetate 4665 mg/kg per os), 35 animals/lot; for Anatomical pathology: lesions / Pb in urine, Pb mean values / Creatinine mean values / Haematocrit mean values / Haemoglobin mean values / Leucocytes mean values / Urea mean values / Uric acid mean value / erythrocytes mean values: Pb intoxicated; for Creatinine mean values / Haematocrit mean values / Haemoglobin mean values / Leucocytes mean values / Urea mean values / Uric acid mean value / erythrocytes mean values: survivors after 7 days
Experimental: (§2) The animals have been randomly divided in 11 lots.
(§3) 3. […] NAC has been dissolved in bidistilled water.
(§4) 4. […] Erdosteine has been solubilized in bidistilled water and sodium hydrogen carbonate equimolar, the resulting solution being administered in volume of 10 ml/kg. Preliminarily we tested the different molar ratios erdosteine/sodium hydrogen carbonate in a range between 0.5:1 and 1.5:1 and the volume to be solubilized. […] Animals Monitoring:
as §1

[3] = test system: rats intoxicated with mercury (mercury chloride); assay: Example 2: erdosteine i.v. vs NAC i.v. in rats intoxicated with mercury; type: in vivo, Wistar rats; conditions: for Mortalitaty total / Mortality in percent: Hg intoxicated (mercury chloride 42 mg/kg per os), 35 animals/lot; for Anatomical pathology: lesions / Hg in urine mean values / Creatinine mean values / Haematocrit mean values / Haemoglobin mean values / Leucocytes mean values / Urea mean values / Uric acid mean value / erythrocytes mean values: Hg intoxicated; for Creatinine mean values / Haematocrit mean values / Haemoglobin mean values / Leucocytes mean values / Urea mean values / Uric acid mean value / erythrocytes mean values: survivors after 7 days
Experimental: as §2, §3, §4, §1

rats = assay: Example 3: evaluation of erdosteine formulation toxicity i.v. (lots 10-13); type: in vivo, Wistar rats; conditions: 10 animals
Experimental: Have been introduced 4 lot of 10 animals (5 males and 5 females) as follows: • Lot 10—intoxicated with 3500 mg/kg erdosteine i.v., 4.37 g erdosteine+1.48 g sodium hydrogen carbonate dissolved in 25 ml, administrated 2 ml/100 g of animal weight • Lot 11—intoxicated with 4000 mg/kg erdosteine i.v. as in lot 10, administrated 2.28 ml/100 g of animal weight • Lot 12—intoxicated with 4500 mg/kg erdosteine i.v. 4.5 g dissolved in 20 ml, administrated 2 ml/100 g of animal weight. Dissolution volume was choose in order to keep a similar injection volume. • Lot 13—intoxicated with 5500 mg/kg erdosteine i.v. as in lot 12, administrated 2.44 ml/100 g of animal weight Statistical Analysis
It has been evaluated toxicity of formula 350 mg erdosteine+118 mg sodium hydrogen carbonate (formula that has shown the best stability data).

[4] = test system: rat intoxicated with lead (lead acetate); assay: Example 3: erdosteine i.v. vs BAL+EDTA (TT) and association in rats intoxicated with lead; conditions: erdosteine 350 mg/kg i.v.
From the text: The animals have been randomly divided in 6 lots.
2. […] Dosage administered is similar to the maximum possible dosage in man.
4. Erdosteine has been administered first, immediately after intoxication, followed rapidly by BAL and then EDTA by more operators in sequence, in order to simulate the situation in man when it is possible to administer i.v. in perfusion and at the same time i.m.
Mortality has been recorded. […] After 7 days urine have been taken through trans-vesica punction.
Analysis of mortality have been made using Chi square test.
Results with p<0.05 have been considered statistically significant.
Biochemical tests have been made with Refloton 2000, hematological tests with Hemastar 4, urine summary with Urilux, Pb in urine with GC-MS Varian

[5] = Pb intoxicated (lead acetate 4665 mg/kg per os), 30 animals/lot
[6] = survivors after 7 days, Pb intoxicated
[7] = ERDO1 = erdosteine 350 mg/kg i.v. or NAC 114 mg/kg i.v. once a day for 7 days
[8] = ERDO2 = erdosteine 175 mg/kg i.v. once a day for 7 days
[9] = ERDO1 = erdosteine 350 mg/kg i.v. or NAC 114 mg/kg i.v. once a day
[10] = ERDO2 = erdosteine 175 mg/kg i.v. once a day
[11] = 3500 mg/kg erdosteine i.v. (lot 10)
[12] = 4000 mg/kg erdosteine i.v. (lot 11)
[13] = 4500 mg/kg erdosteine i.v. (lot 12), solution not perfectly clear
[14] = 5500 mg/kg erdosteine i.v. (lot 13), solution not perfectly clear
[15] = Pb intoxicated (lead acetate 4665 mg/kg per os), BAL 25.2 mg/kg + EDTA 30 mg/kg i.m. (TT) or both, once a day for 7 days, 30 animals/lot
[16] = survivors after 7 days, Pb intoxicated, TT (BAL+EDTA i.m.) or both
[17] = survivors after 7 days, Pb intoxicated, TT (BAL+EDTA i.m.) or both, listed as Erdosteine
[18] = urine at the end of period (7 days), Pb intoxicated, TT or both

In the case of `O=C(O)CSCC(=O)NC1CCSC1=O` (stereo not shown) [erdosteine, Erdosteine], the Mortality in percent [1, 5] is reported as 16.6%, the Mortality total [1, 5] is reported as 5 and the “Anatomical pathology: lesions (macroscopic and microscopic examination)” value ([1]; Pb intoxicated) is reported as “less important damages”. For the same compound, the “Pb in urine, Pb mean values” ([1]; Pb intoxicated, GS MS Varian 4100) was 10.9 mg/L, the Creatinine mean values [1, 6] was 0.48 ^1, 2 mK/dl and the Haematocrit mean values [1, 6] was 39.41^3. For the same compound, the Haemoglobin mean values [1, 6] was 13.75^3 g/dl, the Leucocytes mean values [1, 6] was 7.31^3 and the Urea mean values [1, 6] was 50.93 ^1, 2 mg/dl. For the same compound, the “Uric acid mean value” [1, 6] was 1.90 ^3 mg/dl, the erythrocytes mean values [1, 6] was 6.82^3 *10^6/mm^3 and the Mortalitaty total [2, 7] was 5 ^1, 2. For the same compound, the Mortality in percent [2, 7] was 14.3%, the Mortalitaty total [2, 8] was 10 ^1, 2 and the Mortality in percent [2, 8] was 28.6%. The “Anatomical pathology: lesions” value [2, 7] was “less important damages”, the “Pb in urine, Pb mean values” [2, 7] was 15.9 mg/L and the “Anatomical pathology: lesions” value [2, 8] was “did not improve lesions”. For the same compound, the “Pb in urine, Pb mean values” [2, 8] was 13 mg/L, the Creatinine mean values [2, 9] was 0.49 ^1, 2 mK/dl and the Haematocrit mean values [2, 9] was 37.21 ^3. For the same compound, the Haemoglobin mean values [2, 9] was 15.71 ^3 g/dl, the Leucocytes mean values [2, 9] was 11.36 ^3 and the Urea mean values [2, 9] was 48.95 ^1, 2, 3 mg/dl. The “Uric acid mean value” [2, 9] was 2.28 ^4 mg/dl, the erythrocytes mean values [2, 9] was 7.01 ^3 *10^6/mm^3 and the Creatinine mean values [2, 10] was 0.46 ^1, 2 mK/dl. The Haematocrit mean values [2, 10] was 37.7 ^3, the Haemoglobin mean values [2, 10] was 15.95 ^3 g/dl and the Leucocytes mean values [2, 10] was 14.35 ^3. For the same compound, the Urea mean values [2, 10] was 54.4 ^1, 2 mg/dl, the “Uric acid mean value” [2, 10] was 1.76 ^1, 2 mg/dl and the erythrocytes mean values [2, 10] was 7.07 ^3 *10^6/mm^3. The Mortalitaty total [3, 7] was 8 ^1, 2, the Mortality in percent [3, 7] was 22.6% and the Mortality in percent ([3]; ERDO1 = erdosteine 350 mg/kg i.v. or NAC 114 mg/kg i.v. once a day for 7 days, listed as ERDOI) was 22.6%. For the same compound, the Mortalitaty total [3, 8] was 12 ^1, 2, the Mortality in percent [3, 8] was 34.3% and the “Anatomical pathology: lesions” value [3, 7] was “least severe damages”. For the same compound, the “Hg in urine mean values” [3, 7] was 18.7 mg/L, the “Anatomical pathology: lesions” value [3, 8] was “less important lesions” and the “Hg in urine mean values” [3, 8] was 14.4 mg/L. The Creatinine mean values [3, 9] was 0.60 ^2 mK/dl, the Haematocrit mean values [3, 9] was 38.43 ^3 and the Haemoglobin mean values [3, 9] was 15.05 ^3 g/dl. For the same compound, the Leucocytes mean values [3, 9] was 17.36 ^3, the Urea mean values [3, 9] was 50.36 ^1, 2 mg/dl and the “Uric acid mean value” [3, 9] was 2.25 ^4 mg/dl. For the same compound, the erythrocytes mean values [3, 9] was 6.98 ^3 *10^6/mm^3, the Creatinine mean values [3, 10] was 0.51 ^1, 2 mK/dl and the Haematocrit mean values [3, 10] was 36.83 ^3. For the same compound, the Haemoglobin mean values [3, 10] was 13.86 ^J g/dl, the Leucocytes mean values [3, 10] was 8.61 ^3 and the Urea mean values [3, 10] was 53.15 ^1, 2 mg/dl. The “Uric acid mean value” [3, 10] was 2.23 ^4 mg/dl, the erythrocytes mean values [3, 10] was 6.55 ^3 *10^6/mm^3 and the Mortality % (rats; [11]) was 10%. The Total mortality (rats; [11]) was 1/10, the Mortality % (rats; [12]) was 40% and the Total mortality (rats; [12]) was 4/10. The Mortality % (rats; [13]) was 70%, the Total mortality (rats; [13]) was 7/10 and the Mortality % (rats; [14]) was 100%. For the same compound, the Total mortality (rats; [14]) was 10/10, the Mortality % [4, 15] was 37% and the Total mortality [4, 15] was 11/30 and 11/30 ^1. For the same compound, the “Renal aggression (urine summary), in words” value ([4]; Pb intoxicated, TT or both) was “improvement compared with TT”, the “Pb in urine of survivors at the end of period, mean values” ([4]; Pb intoxicated, TT or both, once a day for 7 days) was 164.6 mg/L and the ALT [4, 16] was 159^2. The AST [4, 16] was 57.2^3, the Hb [4, 16] was 16.98 and the Hct [4, 16] was 42.9. It also gave an MCH [4, 16] of 23.46, a PLT [4, 16] of 574 and an RBC [4, 16] of 7.156. The Urea [4, 16] was 69.4^3, the Uric acid [4, 16] was 2.632 and the WBC [4, 16] was 6.16. For the same compound, the ALT [4, 17] was 159^2,3, the AST [4, 17] was 57.2 and the Hb [4, 17] was 16.98^3. The PLT [4, 17] was 574^3, the RBC [4, 17] was 7.156^1,3 and the Urea [4, 17] was 68.4. For the same compound, the WBC [4, 17] was 6.16^3, the “Urine summary: Bil.” value [4, 18] was 3 mg/dL and the “Urine summary: Chet” value [4, 18] was 10 mg/dL. For the same compound, the “Urine summary: Density” value [4, 18] was 1020, the “Urine summary: Erythrocyte” value [4, 18] was 100 µL⁻¹ and the “Urine summary: Glucose” value [4, 18] was 50 mg/dL. The “Urine summary: Leuc” value [4, 18] was 28 µL⁻¹, the “Urine summary: Prot.” value [4, 18] was 90 mg/dL and the “Urine summary: UBG” value [4, 18] was 1 mg/dL. The “Urine summary: pH” value [4, 18] was 6.5.
